From paper PMC8657075 (Journal of biotechnology, 2021)

What was measured:
[1] = target: T1, dopamine transporter (DAT) (Rattus norvegicus, UniProt P23977); test: [3H]GBR […] radioligand displacement; format: binding
[2] = target: T1, dopamine transporter (DAT); test: [3H]GBR […] radioligand displacement, rat striatal membranes; format: binding

T1 sequence (P23977 whole entry): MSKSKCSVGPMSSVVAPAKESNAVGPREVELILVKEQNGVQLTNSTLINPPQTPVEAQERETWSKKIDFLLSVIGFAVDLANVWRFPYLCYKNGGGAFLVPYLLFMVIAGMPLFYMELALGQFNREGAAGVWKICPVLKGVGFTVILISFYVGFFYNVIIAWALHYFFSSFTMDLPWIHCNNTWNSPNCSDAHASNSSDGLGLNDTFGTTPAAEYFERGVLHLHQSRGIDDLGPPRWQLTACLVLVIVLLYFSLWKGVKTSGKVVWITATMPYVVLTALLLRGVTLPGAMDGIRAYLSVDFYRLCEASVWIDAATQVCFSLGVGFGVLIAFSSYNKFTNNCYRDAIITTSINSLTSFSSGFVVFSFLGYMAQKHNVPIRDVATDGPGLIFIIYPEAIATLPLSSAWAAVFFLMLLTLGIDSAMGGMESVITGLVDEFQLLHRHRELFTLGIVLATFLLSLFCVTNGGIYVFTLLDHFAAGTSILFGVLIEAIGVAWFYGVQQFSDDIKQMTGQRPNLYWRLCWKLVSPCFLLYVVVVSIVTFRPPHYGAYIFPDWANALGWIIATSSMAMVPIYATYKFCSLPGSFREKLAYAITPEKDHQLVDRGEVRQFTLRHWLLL

| Molecule | Ki [1] [µM] | Ki [2] [µM] |
| --- | --- | --- |
| lobinaline N-oxide | 132 | – |
| CN1CCCC2C(c3ccccc3)C(C3=NCCCC3)C(c3ccccc3)CC21 (centres unmarked) [lobinaline] | – | 2.54 |
